Data on three molecules can be found in patent publication US10774046B2, “Inhibitors for the treatment of cancer and related methods” (UNIVERSITY OF LOUISVILLE RESEARCH FOUNDATION, INC., priority 2017, dated 2020).

Assay [1] deals with H460 cells. The assay is described as follows: glycolysis assay (3H2O from 5-[3H]glucose). The class given is cell-based, human. How it is done: H460 cells were exposed to the indicated concentrations of MPN-2 and glycolysis production was examined. Cells growing in 6-well plates were incubated in 500 μl of complete medium containing 1 μCi of 5-[^3H]glucose per well for 60 min in 5% CO2 at 37° C. Media was collected, ^3H2O formed via glycolysis from the 5-[^3H]glucose measured and counts normalized as previously described. For example, the medium was then collected and centrifuged to pellet any suspended cells. To separate the ^3H2O formed via glycolysis from the 5-[^3H]glucose added to the medium, an evaporation technique in a sealed system was utilized. Briefly, 150 μl aliquots of medium were added to open tubes that were placed upright inside scintillation vials containing 1 ml of H2O. The scintillation vials were sealed, and the ^3H2O produced by glycolysis through enolase and released to the medium was allowed to equilibrate with the H2O in the outer vial for 48 h at 37° C. The amounts of ^3H2O that had diffused into the surrounding H2O was measured on a Tri-Carb 2910 liquid scintillation analyzer (Perkin Elmer) and compared with ^3H2O and 5-[^3H]glucose standards. Protein concentration was determined using the BCA assay and counts were normalized to protein concentration. All data are expressed as the mean±SD of three experiments. Statistical significance was assessed by the two-sample t test (independent variable).
Method: To examine glycolysis, H460 cells growing in 6-well plates were incubated in 500 μl of complete medium containing 1 μCi of 5-[^3H] glucose per well for 60 min in 5% CO2 at 37° C. The medium was then collected and centrifuged to pellet any suspended cells. To separate the ^3H2O formed via glycolysis from the 5-[^3H]glucose added to the medium, an evaporation technique in a sealed system was utilized. Briefly, 150 μl aliquots of medium were added to open tubes that were placed upright inside scintillation vials containing 1 ml of H2O. The scintillation vials were sealed, and the ^3H2O produced by glycolysis through enolase and released to the medium was allowed to equilibrate with the H2O in the outer vial for 48 h at 37° C. The amounts of ^3H2O that had diffused into the surrounding H2O was measured on a Tri-Carb 2910 liquid scintillation analyzer (Perkin Elmer) and compared with ^3H2O and 5-[^3H]glucose standards. Protein concentration was determined using the BCA assay and counts were normalized to protein concentration (previously described in CHESNEY et al. Oncotarget. 2014; 5(16):6670-6686.)

Assay [2] relates to H460 cells. The assay is described as follows: intracellular ATP measurement. The class given is cell-based, human. The protocol: H460 cells were exposed to the indicated concentrations of MPN-2 and ATP production was examined. Cells were lysed and intracellular ATP determined as described previously. For example, cells were washed (while still adherent) with cold PBS 1×, lysed with Passive Lysis Buffer (1×; Molecular Probes, Invitrogen) added directly to the plates, and immediately harvested by scraping. The lysates were flash frozen (to −80° C.) and thawed (to 37° C.) once to accomplish complete lysis and then centrifuged (at 4° C.) for 30 seconds to clear the lysates. Intracellular ATP levels were determined using a bioluminescence assay (Molecular Probes), utilizing recombinant firefly luciferase and its substrate, D-luciferin. The luminescence was read in a TD-20/20 luminometer (Turner Designs) at 560 nm. The ATP values were calculated using an ATP standard curve. The protein concentrations of the lysates were estimated using the BCA assay (Pierce Biotechnology) and ATP was expressed as pmol/μg protein. All data are expressed as the mean±SD of three experiments. Statistical significance was assessed by the two-sample t test (independent variable).

The target of another assay is PFKFB3 (Homo sapiens, UniProt Q16875). The assay is described as follows: PFKFB3 kinase activity. In kind it is biochemical. As to conditions: 10 μM.
For assay [3], the system named is H460 cells. The assay is described as follows: apoptosis by flow cytometry (annexin V / propidium iodide). In kind it is cell-based, human. The following applies: H460, 10 μM 5MPN. The protocol: To measure apoptosis, cells were stained with annexin V and propidium iodide and examined as previously described. For example, H460 cells were exposed to increasing concentrations of the PFKFB4 inhibitor (MPN-2), the PFKFB3 inhibitor PFK15 (Tocris) or both and viable cells were counted at 24, 48 and 72 hours. DMSO used as vehicle. For cell cycle experiments, cells were detached, washed with cold PBS and fixed in 70% ethanol (4° C., 30 minutes). The cells then were pelleted by centrifugation, resuspended in PBS containing PI and RNase A, incubated at 37° C. in the dark for 30 minutes and analyzed by flow cytometry (BD FACSCalibur). Data were analyzed using FlowJo software (TREE STAR Inc.). Results were calculated as the mean±SD of three experiments. The effects (Fa values) of the series of concentrations of MPN-2 and PFK-15 were examined individually and in combination at a constant ratio of 1:1.
A general note: Flow cytometry measures light scatter and fluorescence of single cells or particles in a stream.

For assay [4], the system named is cancer cells. The assay is described as follows: F26BP measurement in cells. The class given is cell-based. As to conditions: increasing concentrations. The protocol:
Method: In order to measure F26BP, cells were exposed to increasing concentrations of Formula (VIII) and were harvested, washed with PBS, lysed in NaOH/Tris acetate by heating at 80° C. and lysates neutralized to pH 7.2. F26BP content was measured using a coupled enzyme reaction following a modified method of Van Schaftingen (VAN SCHAFTINGEN et al, “A kinetic study of pyrophosphate:fructose-6-phosphate phosphotransferase from potato tubers. Application to a microassay of fructose 2,6-bisphosphate” Eur J Biochem. (1982) Vol. 129, No. 1, pp. 191-195), which is herein incorporated by reference in its entirety. The F26BP concentration was normalized to total cellular protein measured by the bicinchoninic acid assay (BCA, Thermo Scientific).

For assay [5], the system named is cancer cells. The assay is described as follows: intracellular ATP measurement. In kind it is cell-based. As to conditions: increasing concentrations. How it is done: Method: To measure ATP, cells were washed (while still adherent) with cold PBS, lysed with Passive Lysis Buffer (Molecular Probes, Invitrogen) added directly to the plates, and immediately harvested by scraping. The lysates were flash frozen (to −80° C.) and thawed (to 37° C.) once to accomplish complete lysis and then centrifuged to clear the lysates. Intracellular ATP levels were determined using a bioluminescence assay (Molecular Probes), utilizing luciferase and its substrate, D-luciferin and ATP values were calculated using an ATP standard curve. The ATP concentration was normalized to protein concentration that was estimated using the BCA assay.

[6] abbreviates: H460, indicated concentrations of MPN-2, 48 hours.

Sequence of PFKFB3 (Q16875 whole entry, species assumed): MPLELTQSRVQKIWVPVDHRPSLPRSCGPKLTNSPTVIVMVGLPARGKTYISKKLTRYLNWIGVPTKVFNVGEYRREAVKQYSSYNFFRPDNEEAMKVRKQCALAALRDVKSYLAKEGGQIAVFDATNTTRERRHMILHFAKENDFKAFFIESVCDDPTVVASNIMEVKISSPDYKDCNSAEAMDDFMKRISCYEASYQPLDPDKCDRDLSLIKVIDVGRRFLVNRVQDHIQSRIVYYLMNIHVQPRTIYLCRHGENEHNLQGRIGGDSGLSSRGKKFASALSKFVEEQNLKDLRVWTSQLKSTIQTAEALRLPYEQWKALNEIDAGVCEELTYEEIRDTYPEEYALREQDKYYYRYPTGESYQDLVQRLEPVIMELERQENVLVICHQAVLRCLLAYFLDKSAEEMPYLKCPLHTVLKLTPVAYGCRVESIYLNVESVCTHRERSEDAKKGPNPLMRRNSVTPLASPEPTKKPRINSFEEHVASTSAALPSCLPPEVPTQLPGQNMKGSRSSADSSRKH

For the molecule “5-[(8-methoxy-2-methylquinolin-1-ium-4-yl)amino]pentyl nitrate [MPN-2]”, the intracellular glycolysis result in the assay on H460 cells [1] (setting [6]) is recorded as “decreased”. For the same molecule, in the assay on H460 cells [2] (setting [6]), the ATP production result is on record as “decreased”.

Consider `COc1cccc2c(NCCCCCO[N+](=O)[O-])ccnc12` [5MPN, 5-[(8-methoxyquinolin-4-yl)amino]pentyl nitrate], for which, on PFKFB3, the “inhibition of kinase activity” value is “did not inhibit”. Besides, the glycolysis entry in the assay with H460 cells [1] (H460, 10 μM 5MPN, 6-72 hours) is “reduced”. Further, in the assay with H460 cells [2] (H460, 10 μM 5MPN, 6-72 hours), the ATP result is on record as “reduced”. For the same molecule, the apoptotic cells entry with H460 cells [3] was “increase in apoptotic cells”.

With `COc1cccc2c(NCCCCCNC(=O)C(F)(F)F)ccnc12` [Formula (VIII), 2,2,2-trifluoro-N-(5-((8-methoxyquinolin-4-yl)amino)pentyl)acetamide], the “F26BP (normalized to cellular protein)” value in the assay on cancer cells [4] is recorded as “dose-dependent decrease”. The “production of ATP” value in the assay with cancer cells [5] was “dose-dependent decrease”.
